Kinase still bound, per cent of control data for three compounds are collected here from the kinase profiling compilation of Christmann-Franck et al. (2016).

Assay in all cases: KINOMEscan competition binding
Common to all, as to conditions: compound 10.0 µM

Assay [1] relates to ABL1 (human), P00519 [F317L].
The target of a further assay is DAPK3 (human) (UniProt O43293).
Assay [2] deals with EGFR (human), P00533 [747-751 del / S ins].
Assay [3] concerns EGFR (human), P00533 [A750P; 747-749 del].
The subject of assay [4] is EGFR (human), P00533 [G719C; 746-750 del].
Assay [5] relates to EGFR (human), P00533 [P753S; 747-752 del].
A further assay addresses FRK (human) (UniProt P42685).
A further assay concerns the target GAK (human) (UniProt O14976).
For a further assay, the target named is PLK1 (human) (UniProt P53350).
The next assay addresses PLK3 (human) (UniProt Q9H4B4).
Another assay addresses PTK2 (human) (UniProt Q05397).
For a further assay, the target named is PTK2B (human) (UniProt Q14289).
A further assay addresses RPS6KA6 KD2 (human) (UniProt Q9UK32).
The target of another assay is SIK1 (human) (UniProt P57059).
The next assay has as its target SLK (human) (UniProt Q9H2G2).
The next assay addresses STK10 (human) (UniProt O94804).
In the next assay the target is TNK2 (human) (UniProt Q07912).
A further assay addresses TTK (human) (UniProt P33981).
Assay [6] concerns ABL1 (human), P00519 [F317I].
The target in another assay is ALK (human) (UniProt Q9UM73).
A further assay concerns the target CAMK2A (human) (UniProt Q9UQM7).
A further assay concerns the target CAMK2B (human) (UniProt Q13554).
The target of a further assay is CAMK2D (human) (UniProt Q13557).
A further assay has as its target CAMK2G (human) (UniProt Q13555).
A further assay addresses CLK1 (human) (UniProt P49759).
The next assay addresses CLK4 (human) (UniProt Q9HAZ1).
Another assay deals with DCLK1 (human) (UniProt O15075).
The next assay concerns the target DCLK2 (human) (UniProt Q8N568).
In the next assay the target is DCLK3 (human) (UniProt Q9C098).
The target in the next assay is DYRK1B (human) (UniProt Q9Y463).
The target in another assay is FLT3 (human) (UniProt P36888).
The test system of assay [7] is FLT3 (human), P36888 [D835H].
Assay [8] concerns FLT3 (human), P36888 [D835Y].
Assay [9] concerns FLT3 (human), P36888 [ITD].
The subject of assay [10] is FLT3 (human), P36888 [K663Q].
The subject of assay [11] is FLT3 (human), P36888 [N841I].
The next assay deals with MAPK7 (human) (UniProt Q13164).
A further assay has as its target MKNK2 (human) (UniProt Q9HBH9).
The target of another assay is MYLK4 (human) (UniProt Q86YV6).
The target in another assay is PHKG1 (human) (UniProt Q16816).
The next assay concerns the target PTK6 (human) (UniProt Q13882).
A further assay deals with TNK1 (human) (UniProt Q13470).
The next assay addresses ULK2 (human) (UniProt Q8IYT8).
For the next assay, the target named is DDR1 (human) (UniProt Q08345).
A further assay concerns the target KIT (human) (UniProt P10721).
Assay [12] concerns KIT (human), P10721 [V559D].
Another assay addresses PDGFRB (human) (UniProt P09619).
Another assay has as its target TIE1 (human) (UniProt P35590).

Sequence of FRK (human) (P42685 whole entry, looked up): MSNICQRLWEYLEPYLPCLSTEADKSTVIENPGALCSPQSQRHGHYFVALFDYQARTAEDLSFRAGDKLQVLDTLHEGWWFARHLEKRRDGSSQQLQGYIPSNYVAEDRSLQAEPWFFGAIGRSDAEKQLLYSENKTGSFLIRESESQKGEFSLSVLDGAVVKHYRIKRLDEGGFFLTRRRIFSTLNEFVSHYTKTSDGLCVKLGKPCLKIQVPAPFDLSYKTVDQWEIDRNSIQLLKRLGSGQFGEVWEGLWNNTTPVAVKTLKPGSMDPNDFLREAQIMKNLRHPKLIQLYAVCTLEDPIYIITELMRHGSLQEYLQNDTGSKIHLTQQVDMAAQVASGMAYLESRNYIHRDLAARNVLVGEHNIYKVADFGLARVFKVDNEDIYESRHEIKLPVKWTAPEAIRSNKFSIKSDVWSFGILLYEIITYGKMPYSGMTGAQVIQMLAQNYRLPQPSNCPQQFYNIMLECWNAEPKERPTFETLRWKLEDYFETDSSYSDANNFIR
Sequence of GAK (human) (O14976 whole entry, looked up): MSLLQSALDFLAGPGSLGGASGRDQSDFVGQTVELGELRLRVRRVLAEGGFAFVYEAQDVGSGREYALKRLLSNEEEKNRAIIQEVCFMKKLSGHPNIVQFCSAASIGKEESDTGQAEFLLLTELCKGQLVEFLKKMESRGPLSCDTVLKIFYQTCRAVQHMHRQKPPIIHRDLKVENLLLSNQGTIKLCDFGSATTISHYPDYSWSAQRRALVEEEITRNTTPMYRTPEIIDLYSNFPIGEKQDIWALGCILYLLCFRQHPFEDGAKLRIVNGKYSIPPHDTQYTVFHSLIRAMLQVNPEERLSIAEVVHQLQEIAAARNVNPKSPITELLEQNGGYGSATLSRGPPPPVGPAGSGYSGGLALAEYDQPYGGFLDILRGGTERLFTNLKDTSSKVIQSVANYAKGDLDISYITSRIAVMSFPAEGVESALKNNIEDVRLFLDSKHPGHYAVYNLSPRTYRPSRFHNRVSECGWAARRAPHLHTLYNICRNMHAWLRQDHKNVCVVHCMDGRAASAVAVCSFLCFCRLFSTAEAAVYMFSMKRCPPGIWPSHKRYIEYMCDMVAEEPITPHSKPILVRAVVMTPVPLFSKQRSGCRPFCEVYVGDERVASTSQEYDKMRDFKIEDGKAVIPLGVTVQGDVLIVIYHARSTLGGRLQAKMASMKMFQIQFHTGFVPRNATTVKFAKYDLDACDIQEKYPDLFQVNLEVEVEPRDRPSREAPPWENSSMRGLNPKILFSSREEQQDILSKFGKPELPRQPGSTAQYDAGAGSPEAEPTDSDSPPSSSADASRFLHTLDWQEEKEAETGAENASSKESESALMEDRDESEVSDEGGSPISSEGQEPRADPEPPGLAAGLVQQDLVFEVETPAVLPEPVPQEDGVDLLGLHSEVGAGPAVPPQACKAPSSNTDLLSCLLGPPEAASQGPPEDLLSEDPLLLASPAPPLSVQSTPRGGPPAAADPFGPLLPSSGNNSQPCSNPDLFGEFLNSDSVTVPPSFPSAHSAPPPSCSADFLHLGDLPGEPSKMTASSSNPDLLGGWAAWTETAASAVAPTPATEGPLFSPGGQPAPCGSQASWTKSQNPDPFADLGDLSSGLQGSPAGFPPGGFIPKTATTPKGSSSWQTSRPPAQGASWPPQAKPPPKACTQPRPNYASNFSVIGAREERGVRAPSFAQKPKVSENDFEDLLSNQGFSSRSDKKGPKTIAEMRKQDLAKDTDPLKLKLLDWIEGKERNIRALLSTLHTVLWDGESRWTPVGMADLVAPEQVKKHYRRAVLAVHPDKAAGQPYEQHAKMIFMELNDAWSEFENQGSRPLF
Sequence of STK10 (human) (O94804 whole entry, looked up): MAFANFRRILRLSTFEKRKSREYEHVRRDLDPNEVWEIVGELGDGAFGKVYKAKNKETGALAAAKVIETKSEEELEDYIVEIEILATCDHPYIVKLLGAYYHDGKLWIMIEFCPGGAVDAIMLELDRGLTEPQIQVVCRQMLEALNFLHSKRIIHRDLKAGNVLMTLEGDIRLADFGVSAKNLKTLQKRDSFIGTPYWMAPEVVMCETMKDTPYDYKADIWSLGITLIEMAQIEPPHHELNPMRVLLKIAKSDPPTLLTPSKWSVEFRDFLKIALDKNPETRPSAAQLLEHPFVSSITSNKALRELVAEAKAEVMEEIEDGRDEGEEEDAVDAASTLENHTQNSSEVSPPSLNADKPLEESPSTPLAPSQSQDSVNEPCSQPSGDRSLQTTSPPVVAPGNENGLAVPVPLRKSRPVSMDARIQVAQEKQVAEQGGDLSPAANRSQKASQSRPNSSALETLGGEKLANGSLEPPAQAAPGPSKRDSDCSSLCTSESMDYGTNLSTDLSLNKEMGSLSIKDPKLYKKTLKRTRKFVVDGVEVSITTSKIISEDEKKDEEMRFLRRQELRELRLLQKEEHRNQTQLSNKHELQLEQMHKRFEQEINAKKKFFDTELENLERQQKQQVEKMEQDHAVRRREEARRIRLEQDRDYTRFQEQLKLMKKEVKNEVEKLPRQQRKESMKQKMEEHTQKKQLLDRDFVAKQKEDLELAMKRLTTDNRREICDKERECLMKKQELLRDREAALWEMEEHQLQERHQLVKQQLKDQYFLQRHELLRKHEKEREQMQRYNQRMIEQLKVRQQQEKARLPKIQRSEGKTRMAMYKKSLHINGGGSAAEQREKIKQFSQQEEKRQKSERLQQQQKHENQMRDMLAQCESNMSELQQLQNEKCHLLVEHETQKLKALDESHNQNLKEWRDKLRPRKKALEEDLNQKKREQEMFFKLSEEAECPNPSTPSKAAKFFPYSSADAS
Sequence of TTK (human) (P33981 whole entry, looked up): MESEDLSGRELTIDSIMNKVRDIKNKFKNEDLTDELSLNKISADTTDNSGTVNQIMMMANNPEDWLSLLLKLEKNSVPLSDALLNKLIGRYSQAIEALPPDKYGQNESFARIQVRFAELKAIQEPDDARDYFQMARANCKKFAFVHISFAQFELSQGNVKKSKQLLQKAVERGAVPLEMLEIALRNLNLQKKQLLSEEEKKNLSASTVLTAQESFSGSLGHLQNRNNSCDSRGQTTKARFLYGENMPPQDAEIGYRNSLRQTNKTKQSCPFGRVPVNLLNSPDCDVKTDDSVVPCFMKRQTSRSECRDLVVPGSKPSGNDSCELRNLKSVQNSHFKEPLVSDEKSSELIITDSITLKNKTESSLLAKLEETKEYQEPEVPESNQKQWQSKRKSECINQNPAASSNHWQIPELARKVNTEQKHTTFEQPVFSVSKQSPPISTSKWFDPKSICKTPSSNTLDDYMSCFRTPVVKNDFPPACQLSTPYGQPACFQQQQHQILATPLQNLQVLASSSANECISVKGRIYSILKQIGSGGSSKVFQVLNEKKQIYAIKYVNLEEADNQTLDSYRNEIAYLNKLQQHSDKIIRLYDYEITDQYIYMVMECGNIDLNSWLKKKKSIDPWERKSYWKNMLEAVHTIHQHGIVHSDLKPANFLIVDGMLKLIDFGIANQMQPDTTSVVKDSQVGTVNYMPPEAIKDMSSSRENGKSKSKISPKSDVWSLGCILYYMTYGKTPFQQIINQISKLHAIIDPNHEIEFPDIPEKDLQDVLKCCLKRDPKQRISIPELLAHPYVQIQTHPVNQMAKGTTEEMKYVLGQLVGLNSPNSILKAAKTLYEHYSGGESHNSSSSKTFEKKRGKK
Sequence of TNK2 (human) (Q07912 whole entry, looked up): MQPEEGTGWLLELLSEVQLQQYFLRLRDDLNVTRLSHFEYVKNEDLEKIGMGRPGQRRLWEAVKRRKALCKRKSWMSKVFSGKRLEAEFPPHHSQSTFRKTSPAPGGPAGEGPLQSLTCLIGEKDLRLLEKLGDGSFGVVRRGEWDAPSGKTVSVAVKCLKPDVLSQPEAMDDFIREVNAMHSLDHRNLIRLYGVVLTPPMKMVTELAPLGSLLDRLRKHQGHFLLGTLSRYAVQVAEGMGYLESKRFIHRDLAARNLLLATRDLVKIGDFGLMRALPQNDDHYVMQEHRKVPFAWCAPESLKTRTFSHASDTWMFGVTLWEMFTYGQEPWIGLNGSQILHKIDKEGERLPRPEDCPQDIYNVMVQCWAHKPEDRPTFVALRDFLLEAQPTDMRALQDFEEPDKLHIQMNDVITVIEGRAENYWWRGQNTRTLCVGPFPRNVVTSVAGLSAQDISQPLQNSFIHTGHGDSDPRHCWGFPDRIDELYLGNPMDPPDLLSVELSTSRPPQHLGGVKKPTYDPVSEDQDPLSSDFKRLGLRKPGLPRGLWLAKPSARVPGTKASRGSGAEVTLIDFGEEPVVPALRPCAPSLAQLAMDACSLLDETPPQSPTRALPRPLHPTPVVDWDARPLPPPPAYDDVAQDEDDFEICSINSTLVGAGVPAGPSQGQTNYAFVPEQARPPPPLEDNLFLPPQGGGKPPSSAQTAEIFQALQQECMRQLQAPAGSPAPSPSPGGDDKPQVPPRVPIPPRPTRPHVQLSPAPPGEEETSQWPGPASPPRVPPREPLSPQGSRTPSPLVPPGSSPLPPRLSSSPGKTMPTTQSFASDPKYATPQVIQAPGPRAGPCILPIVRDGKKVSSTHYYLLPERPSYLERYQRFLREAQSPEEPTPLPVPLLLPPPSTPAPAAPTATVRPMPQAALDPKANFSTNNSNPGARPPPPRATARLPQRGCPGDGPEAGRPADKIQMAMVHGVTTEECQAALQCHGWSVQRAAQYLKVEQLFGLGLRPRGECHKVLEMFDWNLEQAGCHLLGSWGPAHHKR
Sequence of PHKG1 (human) (Q16816 whole entry, looked up): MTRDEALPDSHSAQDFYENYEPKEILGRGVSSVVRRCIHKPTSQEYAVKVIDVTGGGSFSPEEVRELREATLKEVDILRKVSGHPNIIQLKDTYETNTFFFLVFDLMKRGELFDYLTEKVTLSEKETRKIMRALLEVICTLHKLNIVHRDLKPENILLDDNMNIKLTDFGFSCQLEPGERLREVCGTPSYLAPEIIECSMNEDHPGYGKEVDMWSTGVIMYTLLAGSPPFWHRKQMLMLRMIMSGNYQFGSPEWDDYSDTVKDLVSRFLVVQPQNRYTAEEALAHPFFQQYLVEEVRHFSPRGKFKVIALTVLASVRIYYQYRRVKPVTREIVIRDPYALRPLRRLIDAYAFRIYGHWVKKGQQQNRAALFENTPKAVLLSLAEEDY

For `COc1cc(N2CCC(N3CCN(C)CC3)CC2)ccc1Nc1ncc2c(n1)N(C1CCCC1)C(C)CC(=O)N2` (centres undefined), the kinase still bound, per cent of control in [1] was 29%; at DAPK3 (human), 28%; in assay [2], 32%; in assay [3], 33%; in assay [4], 30%; in assay [5], 32%. For the same compound, the kinase still bound, per cent of control on FRK (human) stood at 16%; on GAK (human) it was 1.2%; on PLK1 (human), 0%; at PLK3 (human), 26%; on PTK2 (human), 7.1%; at PTK2B (human), 23%. Besides, the kinase still bound, per cent of control at RPS6KA6 KD2 (human) stood at 12%; at SIK1 (human), 27%; at SLK (human) it was 7.2%; at STK10 (human), 19%; on TNK2 (human), 11%; on TTK (human), 12%.

Consider `COc1cc(N2CCN(C)CC2)ccc1Nc1ncc2c(n1)N(C(C)C)c1ccccc1C(=O)N2`, for which the kinase still bound, per cent of control turned out to be 15% in assay [6]; 25% in assay [1]; 30% at ALK (human); 5.4% on CAMK2A (human); 21% on CAMK2B (human); 7.7% at CAMK2D (human). Besides, the kinase still bound, per cent of control at CAMK2G (human) is 25%; on CLK1 (human), 27%; at CLK4 (human), 20%; on DCLK1 (human), 5.4%; at DCLK2 (human), 17%; at DCLK3 (human) it was 11%. The kinase still bound, per cent of control on DYRK1B (human) was determined as 12%; at FLT3 (human), 13%; in [7], 18%; in assay [8], 2%; in assay [9], 6.5%; in assay [10] it was 13%. Besides, the kinase still bound, per cent of control in assay [11] amounted to 0.35%; on FRK (human), 26%; at GAK (human) it was 2%; at MAPK7 (human) it was 30%; at MKNK2 (human) it was 0.8%; at MYLK4 (human), 5.8%. Also, the kinase still bound, per cent of control at PHKG1 (human) stood at 9.2%; on PTK6 (human), 13%; at TNK1 (human), 10%; at TNK2 (human) it was 8.4%; on TTK (human) it was 1%; at ULK2 (human), 27%.

Turning to `NS(=O)(=O)c1ccc(-c2ccc(/C=C3/C(=O)NN(c4ccccc4)C3=O)o2)cc1`, the kinase still bound, per cent of control amounted to 34% on DDR1 (human); 25% on KIT (human); 29% in assay [12]; 33% at PDGFRB (human); 27% at STK10 (human); 25% at TIE1 (human).
